Laboratory results reported in patent US20220175836A1, “PRIMING WITH TARGETED ACTIVATED T CELLS CAN ENHANCE CHEMO RESPONSIVENESS OF CANCER CELLS” (University of Virginia Patent Foundation, priority 2019, published 2022).
Like-named read-outs stand apart in the source and are kept apart here.

Key:
MiaPaCa-2 = test: IC50 concentration by MTT colorimetric assay; type: cell-based, human
Procedure: (§1) MiaPaCa-2 and PANC-1 cells were trypsinized, washed, and incubated overnight in a humidified incubator. Each condition was performed in quadruplicate with 3×10^3 cells/well on a 96-well flat bottom plate. […] After drug treatment, 15 μL of the MTT dye solution was added to each well and incubated for 4 hours in a humidified incubator. The reaction was stopped by adding 100 μL of solubilization solution and the plate was incubated for an additional hour at room temperature. The wells were mixed and the absorbance was measured at 570 nm using a Synergy HTX Plate Reader. The % inhibition was calculated using the following equation: […]

PANC-1 = test: IC50 concentration by MTT colorimetric assay; type: cell-based, human
Procedure: as §1

BxPC-3 cells = test: IC50 concentration in BxPC-3 cells; type: cell-based
CFPAC cells = test: IC50 concentration in CFPAC cells; type: cell-based
L3.6 = test: IC50 concentration in L3.6 cells; type: cell-based
Pancreatic cancer (PC) = conditions: advanced or recurrent disease patients; cited from earlier work

IC50 (BxPC-3 cells; Homo sapiens) [µM] | IC50 (CFPAC cells; no unit printed at b33, read-out: IC50 dose) [µM] | IC50 (MiaPaCa-2; Homo sapiens, MIA PaCa-2, MiaPaCa-2, 72 hours treatment, MTT) [µM] | SMILES | IC50 (MiaPaCa-2; MiaPaCa-2, 72 hours treatment, MTT) [µM] | IC50 (MiaPaCa-2; MiaPaCa-2, no unit printed at b274) [µM] | IC50 (PANC-1; PANC-1, 72 hours treatment, MTT) [µM] | IC50 (PANC-1; PANC-1, no unit printed at b274) [µM] | IC50 (BxPC-3 cells) [µM] | IC50 (CFPAC cells; read-out: IC50 concentration) [µM] | IC50 (L3.6) [µM] | median survival (Pancreatic cancer (PC)) [months]
– | – | – | N.N.[Cl][Pt][Cl] [CIS, cisplatin] | 18.6 | 18.6 | 14 | 14 | 6.9 | 10 | 16 | –
14.6 | 5 | – | O=c1[nH]cc(F)c(=O)[nH]1 [5FU, 5 fluorouracil] | – | – | – | – | – | 5 | – | –
– | – | 15.6 | Nc1ccn([C@@H]2O[C@H](CO)[C@@H](O)C2(F)F)c(=O)n1 [Gem, gemcitabine] | – | – | – | – | – | – | 12 | 6.7
